Measured values published in US9499510B2, “Pro-drug compounds” (Proximagen Limited, priority 2012, dated 2016).
Counter-ions that a name gives are not always drawn.

Assays:
[1] = molecular target: T1, human ether a go-go related gene (hERG) K+ channel (Homo sapiens, UniProt Q12809); assay: hERG assay, IonWorks patch clamp electrophysiology; format: cell-based; settings: Chinese Hamster Lung cell line stably expressing hERG; maximum assay concentration 33 uM
T1 construct: Chinese Hamster Lung cell line stably expressing the full length hERG channel; expressed in transfected cells; host or cells: Chinese Hamster Lung cell line
T1 sequence (Q12809 whole entry): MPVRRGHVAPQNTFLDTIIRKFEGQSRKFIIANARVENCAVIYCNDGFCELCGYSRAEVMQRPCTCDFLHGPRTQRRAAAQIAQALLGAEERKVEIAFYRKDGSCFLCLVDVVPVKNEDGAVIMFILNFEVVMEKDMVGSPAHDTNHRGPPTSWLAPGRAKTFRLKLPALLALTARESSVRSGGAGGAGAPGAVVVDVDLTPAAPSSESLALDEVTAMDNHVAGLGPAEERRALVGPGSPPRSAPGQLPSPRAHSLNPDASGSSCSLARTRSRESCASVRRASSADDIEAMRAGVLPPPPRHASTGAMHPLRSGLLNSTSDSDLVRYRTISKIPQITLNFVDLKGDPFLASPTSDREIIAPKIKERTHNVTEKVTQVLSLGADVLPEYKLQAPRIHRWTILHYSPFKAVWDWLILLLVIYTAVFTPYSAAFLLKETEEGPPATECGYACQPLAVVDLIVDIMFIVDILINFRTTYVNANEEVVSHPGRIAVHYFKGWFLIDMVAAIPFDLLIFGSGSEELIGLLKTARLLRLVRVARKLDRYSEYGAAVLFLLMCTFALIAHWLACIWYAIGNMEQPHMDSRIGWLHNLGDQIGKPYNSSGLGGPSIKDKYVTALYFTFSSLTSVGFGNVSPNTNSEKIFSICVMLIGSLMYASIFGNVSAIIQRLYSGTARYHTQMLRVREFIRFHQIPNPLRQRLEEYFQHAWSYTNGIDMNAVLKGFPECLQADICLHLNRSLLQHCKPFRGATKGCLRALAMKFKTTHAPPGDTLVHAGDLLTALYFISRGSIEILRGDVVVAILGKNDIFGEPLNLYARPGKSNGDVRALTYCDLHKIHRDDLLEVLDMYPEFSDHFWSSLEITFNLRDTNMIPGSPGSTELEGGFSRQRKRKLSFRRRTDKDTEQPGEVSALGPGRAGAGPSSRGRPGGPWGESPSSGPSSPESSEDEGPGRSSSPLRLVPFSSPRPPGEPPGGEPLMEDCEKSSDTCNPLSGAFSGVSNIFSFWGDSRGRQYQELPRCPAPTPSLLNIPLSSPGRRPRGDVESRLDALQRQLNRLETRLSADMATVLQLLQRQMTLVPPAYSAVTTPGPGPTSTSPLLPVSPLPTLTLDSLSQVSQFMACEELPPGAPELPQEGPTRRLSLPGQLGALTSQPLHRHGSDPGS
Procedure: Compounds of the invention were tested for inhibition of the human ether a go-go related gene (hERG) K^+ channel using IonWorks patch clamp electrophysiology. 8 Point concentration-response curves were generated on two occasions using 3-fold serial dilutions from the maximum assay concentration (33 uM). Electrophysiological recordings were made from a Chinese Hamster Lung cell line stably expressing the full length hERG channel. Single cell ion currents were measured in the perforated patch clamp configuration (100 ug/mL amphoterocin) at room temperature using an IonWorks Quattro instrument. The internal solution contained 140 mM KCl, 1 mM MgCl2, 1 mM EGTA and 20 mM HEPES and was buffered to pH 7.3. The external solution contained 138 mM NaCl, 2.7 mM KCl, 0.9 mM CaCl2, 0.5 mM MgCl2, 8 mM Na2HPO4 and 1.5 mM KH2PO4, and was buffered to pH 7.3. Cells were clamped at a holding potential of […] for 30 s and then stepped to +40 mV for 1 s. This was followed by a hyperpolarising step of 1 s to […] to evoke the hERG tail current. This sequence was repeated 5 times at a frequency of 0.25 Hz. Currents were measured from the tail step at the 5th pulse, and referenced to the holding current. Compounds were incubated for 6-7 min prior to a second measurement of the hERG signal using an identical pulse train. A minimum of 17 cells were required for each pIC50 curve fit. […]

[2] = Solubility in aqueous solution (pH 2 to 10); format: physicochemical
Text: In an embodiment, prodrugs of the present invention are suitable for oral administration. The skilled person understands that the pH of the gastrointestinal tract changes along its length. For example, the stomach has a pH of around pH 1.5 and the GI tract after the stomach has a pH of around 5 to 7.5. For more detail see, for example, Measurement of gastrointestinal pH profiles in normal ambulant human subjects, Gut. 1988 August; 29(8): 1035-1041. Improved solubility is expected to result in improved absorption, and therefore improved oral bioavailability. Thus improved solubility at any pH value between around pH 1.5 to 8 is expected to improve oral bioavailability. Compounds of the invention were assessed for solubility in aqueous solutions having a pH of from 2 to 10. In an embodiment prodrugs of the invention have a solubility of >0.5 mg/mL in an aqueous solution having a pH of from 2 to 10, including from 2 to 8. In an embodiment prodrugs have a solubility of >5.0 mg/mL, or >10.0 mg/mL, >100.0 mg/mL, or >200.0 mg/mL in an aqueous solution having a pH of from 2 to 10, including from 2 to 8. In an embodiment the prodrugs have the aforementioned aqueous solubility at a pH within the range of from 4 to 8, or from 6 to 8.
In an embodiment, prodrugs of the invention are administered intravenously. High prodrug solubility is advantageous in order to reduce the volume of solution administered to the patient, and to reduce the risk of damage to the circulatory system. Solubility in an aqueous solution having a pH of from 2 to 10 of >10 mg/mL is preferred. Yet more preferred is solubility in an aqueous solution having a pH of from 2 to 10 of >30 mg/mL or >100.0 mg/mL. Yet more preferred is solubility in an aqueous solution having a pH of from 2 to 10 of >200.0 mg/mL. The solubility is measured in an aqueous solution having a pH of from 2 to 10, which pH range is advantageous for intravenous prodrug delivery. See, for example, A guide on intravenous drug compatibilities based on their pH, Nasser S C et al./Pharmacie Globale (IJCP) 2010, 5 (01)). In an embodiment the prodrugs of the claimed invention have solubility of >10 mg/mL in an aqueous solution having a pH of from 2 to 10. In an embodiment the prodrugs have the aforementioned aqueous solubility at a pH within the range of from 2 to 8, or from 4 to 8, or from 6 to 8. The solubility of the Examples is illustrated in Table 1.

CC(=O)c1ccc2c(c1)[C@H](NC(=O)c1ccc(F)c(Cl)c1)[C@H](OP(=O)(O)O)C(C)(C)O2 [Example 1, {[(3S,4S)-6-Acetyl-4-[(3-chloro-4-fluorobenzene)amido]-2,2-dimethyl-3,4-dihydro-2H-1-benzopyran-3-yl]oxy}phosphonic acid]
IC50 [1]: > 11 µM
solubility ([2]; pH 5.7, aqueous buffer): > 50000 µg/mL

CC(=O)c1ccc2c(c1)[C@H](NC(=O)c1ccc(F)c(Cl)c1)[C@H](OC(=O)CN(C)C)C(C)(C)O2 [Example 2, (3S,4S)-6-Acetyl-4-[(3-chloro-4-fluorobenzene)amido]-2,2-dimethyl-3,4-dihydro-2H-1-benzopyran-3-yl 2-(dimethylamino)acetate hydrochloride]
solubility ([2]; pH 3.6, aqueous buffer): > 20000 µg/mL

CC(=O)O[C@H]1[C@@H](NC(=O)c2ccc(F)c(Cl)c2)c2cc(C(C)=O)ccc2OC1(C)C [Example 3, (3S,4S)-6-Acetyl-4-[(3-chloro-4-fluorobenzene)amido]-2,2-dimethyl-3,4-dihydro-2H-1-benzopyran-3-yl acetate]
solubility ([2]; pH 3.5, aqueous buffer): < 250 µg/mL

CC(=O)OCO[C@H]1[C@@H](NC(=O)c2ccc(F)c(Cl)c2)c2cc(C(C)=O)ccc2OC1(C)C [Example 4, {[(3S,4S)-6-Acetyl-4-[(3-chloro-4-fluorobenzene)amido]-2,2-dimethyl-3,4-dihydro-2H-1-benzopyran-3-yl]oxy}methyl acetate]
solubility ([2]; pH 3.5, aqueous buffer): < 250 µg/mL

CC(=O)c1ccc2c(c1)[C@H](NC(=O)c1ccc(F)c(Cl)c1)[C@H](OCOC(=O)CN(C)C)C(C)(C)O2 [Example 5, {[(3S,4S)-6-Acetyl-4-[(3-chloro-4-fluorobenzene)amido]-2,2-dimethyl-3,4-dihydro-2H-1-benzopyran-3-yl]oxy}methyl 2-(dimethylamino)acetate]
solubility ([2]; aqueous buffer, pH 3.0): > 2000 µg/mL

CC(=O)c1ccc2c(c1)[C@H](NC(=O)c1ccc(F)c(Cl)c1)[C@H](OC(=O)CN)C(C)(C)O2 [Example 6, (3S,4S)-6-Acetyl-4-[(3-chloro-4-fluorobenzene)amido]-2,2-di methyl-3,4-dihydro-2H-1-benzopyran-3-yl 2-aminoacetate hydrochloride]
solubility ([2]; aqueous buffer, pH 4.0): > 20000 µg/mL

CNCC(=O)O[C@H]1[C@@H](NC(=O)c2ccc(F)c(Cl)c2)c2cc(C(C)=O)ccc2OC1(C)C [Example 7, (3S,4S)-6-acetyl-4-[(3-chloro-4-fluorobenzene)amido]-2,2-di methyl-3,4-dihydro-2H-1-benzopyran-3-yl 2-(methylamino)acetate hydrochloride]
solubility ([2]; pH 4.4, aqueous buffer): > 20000 µg/mL

CC(=O)c1ccc2c(c1)[C@H](NC(=O)c1ccc(F)c(Cl)c1)[C@H](OCOP(=O)(O)O)C(C)(C)O2 [Example 8, ({[(3S,4S)-6-Acetyl-4-[(3-chloro-4-fluorobenzene)amido]-2,2-dimethyl-3,4-dihydro-2H-1-benzopyran-3-yl]oxy}methoxy)phosphonic acid diamine]
solubility ([2]; pH 5.7, aqueous buffer): > 200000 µg/mL

CC(=O)c1ccc2c(c1)[C@H](NC(=O)c1ccc(F)c(Cl)c1)[C@H](OC(=O)[C@@H](N)CC(C)C)C(C)(C)O2.Cl [Example 9, (3S,4S)-6-Acetyl-4-[(3-chloro-4-fluorobenzene)amido]-2,2-di methyl-3,4-dihydro-2H-1-benzopyran-3-yl(2S)-2-amino-4-methylpentanoate hydrochloride]
solubility ([2]; pH 2.7, aqueous buffer): > 5000 µg/mL

CCCNCC(=O)O[C@H]1[C@@H](NC(=O)c2ccc(F)c(Cl)c2)c2cc(C(C)=O)ccc2OC1(C)C.Cl [Example 10, (3S,4S)-6-Acetyl-4-[(3-chloro-4-fluorobenzene)amido]-2,2-di methyl-3,4-dihydro-2H-1-benzopyran-3-yl 2-(propylamino)acetate hydrochloride]
solubility ([2]; pH 4.4, aqueous buffer): > 10000 µg/mL

CC(=O)c1ccc2c(c1)[C@H](NC(=O)c1ccc(F)c(Cl)c1)[C@H](OC(=O)CNC(C)C)C(C)(C)O2.Cl [Example 11, (3S,4S)-6-Acetyl-4-[(3-chloro-4-fluorobenzene)amido]-2,2-di methyl-3,4-dihydro-2H-1-benzopyran-3-yl 2-[(propan-2-yl)amino]acetate hydrochloride]
solubility ([2]; pH 4.2, aqueous buffer): > 10000 µg/mL
